Source: ChEMBL document CHEMBL1125402, “Conformational effects on the activity of drugs. 13. A revision of previously proposed models for the activation of alpha- and beta-adrenergic receptors” (J Med Chem, 1992)

What was measured:
[1] = biological target: Beta-2 adrenergic receptor (Cavia porcellus) (UniProt Q8K4Z4); assay: Intrinsic activity was expressed as the ratio between maximal response elicited by compound and that elicited by full agonist ISO towards beta 2 receptor of isolated guinea pig tracheal strip (exp 1); type: functional
Beta-2 adrenergic receptor (Cavia porcellus), sequence (Q8K4Z4 whole entry, looked up): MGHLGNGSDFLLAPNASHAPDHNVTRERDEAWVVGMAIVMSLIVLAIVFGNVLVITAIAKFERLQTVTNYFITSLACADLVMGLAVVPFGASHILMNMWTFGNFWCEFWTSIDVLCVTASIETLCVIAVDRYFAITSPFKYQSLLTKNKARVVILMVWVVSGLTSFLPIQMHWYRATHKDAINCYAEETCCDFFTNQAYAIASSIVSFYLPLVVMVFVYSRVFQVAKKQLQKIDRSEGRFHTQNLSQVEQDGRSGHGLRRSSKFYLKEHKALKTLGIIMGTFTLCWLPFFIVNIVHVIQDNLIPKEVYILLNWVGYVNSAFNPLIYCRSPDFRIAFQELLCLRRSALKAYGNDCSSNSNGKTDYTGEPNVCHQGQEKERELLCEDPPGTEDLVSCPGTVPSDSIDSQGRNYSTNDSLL

[2] = biological target: T1, Adrenergic receptor alpha-2 (Rattus norvegicus, UniProt P22086+P19328+P22909); assay: Compound was evaluated for alpha adrenergic binding affinity towards Alpha-2 adrenergic receptor of rat brain
T1 sequence (P22086 whole entry): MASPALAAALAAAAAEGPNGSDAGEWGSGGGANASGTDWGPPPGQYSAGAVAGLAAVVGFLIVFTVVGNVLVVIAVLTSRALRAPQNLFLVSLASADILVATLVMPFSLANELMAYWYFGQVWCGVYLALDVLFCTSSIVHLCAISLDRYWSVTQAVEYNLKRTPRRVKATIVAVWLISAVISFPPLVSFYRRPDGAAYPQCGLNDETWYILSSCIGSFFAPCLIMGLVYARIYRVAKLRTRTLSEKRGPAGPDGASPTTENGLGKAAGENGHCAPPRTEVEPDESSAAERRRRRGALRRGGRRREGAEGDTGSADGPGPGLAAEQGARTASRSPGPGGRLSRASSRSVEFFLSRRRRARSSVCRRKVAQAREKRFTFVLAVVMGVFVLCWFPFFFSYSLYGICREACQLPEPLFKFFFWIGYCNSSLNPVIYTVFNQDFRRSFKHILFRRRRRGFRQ
T1 sequence (P19328 whole entry): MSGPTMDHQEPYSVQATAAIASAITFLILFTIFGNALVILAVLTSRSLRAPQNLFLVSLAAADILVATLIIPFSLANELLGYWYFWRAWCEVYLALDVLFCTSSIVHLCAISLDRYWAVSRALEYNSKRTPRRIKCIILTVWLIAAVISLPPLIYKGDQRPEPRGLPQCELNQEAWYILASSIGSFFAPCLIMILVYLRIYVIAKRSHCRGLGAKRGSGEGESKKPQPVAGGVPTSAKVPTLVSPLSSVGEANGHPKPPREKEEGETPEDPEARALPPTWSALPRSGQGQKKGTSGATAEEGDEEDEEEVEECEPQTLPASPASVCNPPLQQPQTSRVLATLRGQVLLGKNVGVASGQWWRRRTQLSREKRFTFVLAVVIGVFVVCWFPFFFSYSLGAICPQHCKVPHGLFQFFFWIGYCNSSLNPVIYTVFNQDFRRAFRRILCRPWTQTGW
T1 sequence (P22909 whole entry): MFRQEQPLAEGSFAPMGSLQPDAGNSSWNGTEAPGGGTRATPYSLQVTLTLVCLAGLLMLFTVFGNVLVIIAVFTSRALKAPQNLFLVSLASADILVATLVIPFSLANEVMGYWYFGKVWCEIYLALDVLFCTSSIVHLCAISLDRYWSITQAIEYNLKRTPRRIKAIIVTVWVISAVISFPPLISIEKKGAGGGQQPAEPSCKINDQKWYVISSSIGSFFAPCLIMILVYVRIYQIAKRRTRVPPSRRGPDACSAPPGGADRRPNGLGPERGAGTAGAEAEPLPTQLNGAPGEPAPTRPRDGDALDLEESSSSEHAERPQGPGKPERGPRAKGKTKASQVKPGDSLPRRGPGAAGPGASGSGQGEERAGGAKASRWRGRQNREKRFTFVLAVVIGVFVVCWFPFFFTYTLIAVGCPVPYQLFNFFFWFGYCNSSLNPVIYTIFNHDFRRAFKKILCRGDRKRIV

[3] = biological target: T2, Adrenergic receptor alpha-1 (Rattus norvegicus, UniProt P15823+P23944+P43140); assay: Binding affinity towards Alpha-1 adrenergic receptor of rat brain
T2 sequence (P15823 whole entry): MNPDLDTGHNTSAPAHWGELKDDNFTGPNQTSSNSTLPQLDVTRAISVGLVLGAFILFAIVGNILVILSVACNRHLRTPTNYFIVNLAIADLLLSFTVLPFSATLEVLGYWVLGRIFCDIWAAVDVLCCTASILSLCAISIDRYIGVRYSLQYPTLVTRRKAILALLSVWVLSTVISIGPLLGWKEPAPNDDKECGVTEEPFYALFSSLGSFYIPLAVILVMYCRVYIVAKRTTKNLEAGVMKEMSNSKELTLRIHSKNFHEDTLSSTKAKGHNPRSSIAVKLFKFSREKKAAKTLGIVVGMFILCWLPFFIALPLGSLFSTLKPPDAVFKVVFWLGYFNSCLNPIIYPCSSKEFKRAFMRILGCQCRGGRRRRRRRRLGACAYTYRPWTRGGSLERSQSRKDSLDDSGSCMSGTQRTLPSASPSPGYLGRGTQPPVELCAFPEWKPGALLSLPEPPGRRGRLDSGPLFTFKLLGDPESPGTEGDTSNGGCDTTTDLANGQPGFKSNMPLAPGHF
T2 sequence (P23944 whole entry): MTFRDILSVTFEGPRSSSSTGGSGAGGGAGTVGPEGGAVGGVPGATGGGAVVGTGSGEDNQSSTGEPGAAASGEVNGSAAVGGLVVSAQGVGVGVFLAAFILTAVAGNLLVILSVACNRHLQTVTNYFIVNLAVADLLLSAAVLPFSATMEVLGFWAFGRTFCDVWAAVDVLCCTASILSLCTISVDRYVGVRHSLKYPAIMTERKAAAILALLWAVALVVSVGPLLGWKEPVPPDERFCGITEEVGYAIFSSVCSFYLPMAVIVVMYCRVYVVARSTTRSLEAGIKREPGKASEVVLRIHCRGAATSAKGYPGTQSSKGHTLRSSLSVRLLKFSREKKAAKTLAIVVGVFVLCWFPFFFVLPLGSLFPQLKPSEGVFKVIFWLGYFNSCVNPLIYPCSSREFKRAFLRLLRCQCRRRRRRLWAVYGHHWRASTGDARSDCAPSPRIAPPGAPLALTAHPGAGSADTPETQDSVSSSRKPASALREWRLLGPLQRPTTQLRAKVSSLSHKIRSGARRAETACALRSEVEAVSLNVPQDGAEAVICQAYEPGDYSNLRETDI
T2 sequence (P43140 whole entry): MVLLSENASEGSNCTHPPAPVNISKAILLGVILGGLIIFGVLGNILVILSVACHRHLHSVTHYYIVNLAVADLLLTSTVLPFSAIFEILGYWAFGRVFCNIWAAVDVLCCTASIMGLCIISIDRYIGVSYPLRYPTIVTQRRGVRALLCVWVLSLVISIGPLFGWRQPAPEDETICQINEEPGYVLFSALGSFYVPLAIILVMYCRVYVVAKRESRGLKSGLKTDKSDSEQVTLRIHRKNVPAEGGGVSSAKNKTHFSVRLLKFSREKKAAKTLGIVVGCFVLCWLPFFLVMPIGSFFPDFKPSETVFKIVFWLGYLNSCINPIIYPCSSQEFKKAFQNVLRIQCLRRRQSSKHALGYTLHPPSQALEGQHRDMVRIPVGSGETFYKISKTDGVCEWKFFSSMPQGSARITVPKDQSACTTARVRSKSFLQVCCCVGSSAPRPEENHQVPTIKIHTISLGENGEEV

[4] = biological target: Beta-2 adrenergic receptor (Cavia porcellus) (UniProt Q8K4Z4); assay: Intrinsic activity was expressed as the ratio between maximal response elicited by compound and that elicited by full agonist ISO towards Beta-2 adrenergic receptor of isolated guinea pig tracheal strip (exp 1); type: functional
[5] = biological target: Beta-2 adrenergic receptor (Cavia porcellus) (UniProt Q8K4Z4); assay: Intrinsic activity was expressed as the ratio between maximal response elicited by compound and that elicited by full agonist ISO towards beta 2 receptor of isolated guinea pig tracheal strip (exp 2); type: functional
[6] = biological target: T3, Beta-1 adrenergic receptor (Rattus norvegicus, UniProt P18090); assay: Compound was evaluated for beta adrenergic binding affinity towards beta-1 receptor of rat brain
T3 sequence (P18090 whole entry): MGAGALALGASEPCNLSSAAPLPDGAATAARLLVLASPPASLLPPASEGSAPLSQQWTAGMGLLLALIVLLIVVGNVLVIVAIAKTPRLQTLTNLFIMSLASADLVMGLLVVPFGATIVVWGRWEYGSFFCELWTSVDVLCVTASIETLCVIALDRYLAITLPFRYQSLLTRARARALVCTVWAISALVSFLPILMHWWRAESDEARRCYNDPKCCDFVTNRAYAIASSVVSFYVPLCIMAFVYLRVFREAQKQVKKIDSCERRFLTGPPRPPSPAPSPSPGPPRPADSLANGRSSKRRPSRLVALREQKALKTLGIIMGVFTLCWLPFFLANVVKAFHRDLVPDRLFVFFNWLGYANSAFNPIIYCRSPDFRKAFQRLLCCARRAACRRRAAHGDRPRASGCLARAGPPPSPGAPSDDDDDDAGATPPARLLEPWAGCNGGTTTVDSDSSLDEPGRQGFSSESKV

[7] = biological target: Beta-2 adrenergic receptor (Bos taurus, UniProt Q28044); assay: Compound was evaluated for beta adrenergic binding affinity towards beta-2 receptor of bovine lung
Beta-2 adrenergic receptor, sequence (Q28044 whole entry): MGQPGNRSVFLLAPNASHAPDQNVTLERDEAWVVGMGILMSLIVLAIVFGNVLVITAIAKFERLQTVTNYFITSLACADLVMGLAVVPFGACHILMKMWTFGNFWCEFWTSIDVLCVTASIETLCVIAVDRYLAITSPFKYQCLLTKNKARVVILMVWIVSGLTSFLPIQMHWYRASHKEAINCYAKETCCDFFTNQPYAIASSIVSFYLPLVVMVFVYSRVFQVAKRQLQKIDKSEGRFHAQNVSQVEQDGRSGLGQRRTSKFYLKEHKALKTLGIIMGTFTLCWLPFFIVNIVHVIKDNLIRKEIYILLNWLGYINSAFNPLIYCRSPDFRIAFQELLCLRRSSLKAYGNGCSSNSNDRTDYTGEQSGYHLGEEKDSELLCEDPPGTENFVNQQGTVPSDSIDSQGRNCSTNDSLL

[8] = biological target: Adrenergic receptor alpha-2 (Homo sapiens) (UniProt P08913+P18825+P18089); conditions: Cavia porcellus; Ileum
Description: Intrinsic activity was expressed as the ratio between maximal response elicited by compound and that elicited by full agonist NE towards Alpha-2 adrenergic receptor of isolated guinea pig ileum

[9] = biological target: Beta-2 adrenergic receptor (Cavia porcellus) (UniProt Q8K4Z4)
Description: Compound was evaluated for beta adrenoceptor agonistic activity towards Beta-2 adrenergic receptor of isolated guinea pig tracheal strip (exp 2)

[10] = biological target: Beta-1 adrenergic receptor (Cavia porcellus) (UniProt B0FL73); assay: Compound was evaluated for beta adrenoceptor agonistic activity towards beta 1 receptor of isolated guinea pig atria (exp 2); type: functional
Beta-1 adrenergic receptor (Cavia porcellus), sequence (B0FL73 1-467): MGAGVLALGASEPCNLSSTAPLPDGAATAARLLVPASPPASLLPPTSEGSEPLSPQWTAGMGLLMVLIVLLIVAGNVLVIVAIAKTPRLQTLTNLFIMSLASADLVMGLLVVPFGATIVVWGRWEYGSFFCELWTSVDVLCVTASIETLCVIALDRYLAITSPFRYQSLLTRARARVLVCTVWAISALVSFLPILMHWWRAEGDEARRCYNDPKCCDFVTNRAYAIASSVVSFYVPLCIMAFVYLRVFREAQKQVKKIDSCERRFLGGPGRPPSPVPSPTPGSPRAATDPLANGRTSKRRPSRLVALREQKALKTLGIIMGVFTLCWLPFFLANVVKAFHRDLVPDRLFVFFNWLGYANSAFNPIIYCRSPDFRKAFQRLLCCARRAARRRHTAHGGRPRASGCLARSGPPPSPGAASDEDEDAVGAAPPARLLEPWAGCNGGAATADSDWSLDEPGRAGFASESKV

[11] = biological target: Beta-1 adrenergic receptor (Cavia porcellus) (UniProt B0FL73); assay: Compound was evaluated for beta adrenergic […]
[12] = biological target: Beta-1 adrenergic receptor (Cavia porcellus) (UniProt B0FL73); assay: Compound was evaluated for beta adrenoceptor agonistic activity towards Beta-1 adrenergic receptor of isolated guinea pig atria (exp 1); type: functional
[13] = biological target: Beta-1 adrenergic receptor (Cavia porcellus) (UniProt B0FL73); assay: Intrinsic activity was expressed as the ratio between maximal response elicited by compound and that elicited by full agonist ISO towards Beta-1 adrenergic receptor of isolated guinea pig atria (exp 1); type: functional
[14] = biological target: Beta-1 adrenergic receptor (Cavia porcellus) (UniProt B0FL73); assay: Compound was evaluated for beta adrenoceptor agonistic activity towards Beta-1 adrenergic receptor of isolated guinea pig atria (exp 2); type: functional
[15] = biological target: Beta-1 adrenergic receptor (Cavia porcellus) (UniProt B0FL73); assay: Compound was evaluated for beta adrenoceptor agonistic activity towards beta 1 receptor of isolated guinea pig atria (exp 1); type: functional
[16] = biological target: Beta-2 adrenergic receptor (Cavia porcellus) (UniProt Q8K4Z4); assay: Compound was evaluated for beta adrenoceptor agonistic activity towards beta 2 receptor of isolated guinea pig tracheal strip (exp 1 2); type: functional
[17] = biological target: Adrenergic receptor alpha-1 (Homo sapiens) (UniProt P35348+P25100+P35368); assay: (§1) Compound was evaluated for alpha adrenoceptor agonistic activity towards Alpha-1 adrenergic receptor of isolated rat vas deferens; type: functional, tissue-based; conditions: Oryctolagus cuniculus
[18] = biological target: T3, Beta-1 adrenergic receptor
Description: Compound was evaluated for beta adrenergic binding affinity towards Beta-1 adrenergic receptor of rat brain

[19] = biological target: T4, Adrenergic receptor alpha-1 (Rattus norvegicus) (UniProt P15823+P23944+P43140); assay: Compound was evaluated for alpha adrenoceptor agonistic activity towards alpha 1 receptor of isolated rat vas deferens; type: functional, tissue-based
[20] = biological target: Beta-2 adrenergic receptor (Cavia porcellus) (UniProt Q8K4Z4); assay: Compound was evaluated for beta adrenoceptor agonistic activity towards Beta-2 adrenergic receptor of isolated guinea pig tracheal strip (exp 1 2); type: functional
[21] = biological target: T4, Adrenergic receptor alpha-1 (Rattus norvegicus); assay: Compound was evaluated for alpha adrenoceptor agonistic activity towards Alpha-1 adrenergic receptor of isolated rabbit aortic strips (exp 2); type: functional
[22] = biological target: T4, Adrenergic receptor alpha-1 (Rattus norvegicus); conditions: Vas deferens
[23] = biological target: Beta-1 adrenergic receptor (Cavia porcellus) (UniProt B0FL73)
[24] = biological target: Beta-2 adrenergic receptor (Cavia porcellus) (UniProt Q8K4Z4); remark: listed apart in the source
[25] = biological target: T4, Adrenergic receptor alpha-1 (Rattus norvegicus); assay: as §1; type: functional, tissue-based
[26] = biological target: T4, Adrenergic receptor alpha-1 (Rattus norvegicus); assay: Compound was evaluated for alpha adrenoceptor agonistic activity towards Alpha-1 adrenergic receptor of isolated rat vas deferens (exp 2); type: functional, tissue-based
[27] = biological target: Beta-1 adrenergic receptor (Cavia porcellus) (UniProt B0FL73); assay: Compound was evaluated for beta adrenoceptor agonistic activity towards beta 1 receptor of isolated guinea pig atria; type: functional
[28] = biological target: T4, Adrenergic receptor alpha-1 (Rattus norvegicus); assay: Compound was evaluated for alpha adrenoceptor agonistic activity towards alpha 1 receptor of isolated rat vas deferens (exp 1); type: functional, tissue-based
[29] = biological target: Beta-1 adrenergic receptor (Cavia porcellus) (UniProt B0FL73); assay: Intrinsic activity was expressed as the ratio between maximal response elicited by compound and that elicited by full agonist ISO towards beta 1 receptor of isolated guinea pig atria; type: functional

`CC(C)N1CCOC(c2ccc(O)c(O)c2)C1` (configuration not stated) showed an Intrinsic activity [1] of 0.87, a Ki [2] of 5.1 µM and a Ki [3] of 6.7 µM. It also gave a pD2 [4] of 5.91, an Intrinsic activity [5] of 0.93 and a Ki [6] of 48 µM. It also gave a Ki [7] of 36 µM, a pD2 [8] of 5 and a pD2 [9] of 6.34. For the same compound, the pD2 [10] was 5.74, the pD2 [11] was 4.62 and the Intrinsic activity [12] was 0.77. For the same compound, the Intrinsic activity [13] was 0.88.

`N[C@@H]1CCc2c(ccc(O)c2O)[C@H]1O` was tested, and the Ki [2] was 2.9 µM, the Ki [3] was over 100 µM and the Ki [7] was 0.12 µM. For the same compound, the pD2 [8] was 5.32, the Intrinsic activity [14] was 1 and the pD2 [15] was 4.96. For the same compound, the pD2 [16] was 7.49, the pD2 [17] was under 3.5 and the pD2 [12] was 6.74. It also gave a Ki [18] of 8 µM, a pD2 [19] of 3.7 and a pD2 [20] of 7.78. The Intrinsic activity [21] was 0.87.

Compound `NC[C@H](O)c1ccc(O)c(O)c1` [NOREPINEPHRINE] has a pD2 [22] of 5.12, a pD2 [23] of 6.32 and a Ki [7] of 6 µM. For the same compound, the pD2 [8] was 6.56, the pD2 [24] was 6.03 and the Intrinsic activity [25] was 1.

`Oc1ccc(C2CNCCO2)cc1O` (configuration not stated) showed a Ki [2] of 0.026 µM, a Ki [3] of 7.4 µM and a Ki [6] of 15 µM. It also gave an Intrinsic activity [26] of 0.91, a pD2 [27] of 5.31 and a Ki [7] of 9.2 µM. The pD2 [8] was 7.34, the pD2 [24] was 4.76 and the pD2 [28] was 4.88. The Intrinsic activity [29] was 0.91.
